Data reported in ChEMBL document CHEMBL3217587, “The discovery of N-1 substituted 2-aminobenzimidazoles as zinc-dependent S. aureus biofilm inhibitors” (Medchemcomm, 2012).
The source made the active and inactive calls. No cut-off for these calls is given here.

Legend:
Staphylococcus aureus [1] = assay: Toxicity in methicillin-resistant Staphylococcus aureus ATCC 43300 assessed as inhibition of planktonic cell growth at IC50 after 2 to 24 hrs by spectrophotometry; type: organism-based
Staphylococcus aureus [2] = assay: Antimicrobial activity against methicillin-resistant Staphylococcus aureus ATCC 700789 after 16 hrs by broth microdilution method; type: functional; settings: ATCC 700789, 16 h
Staphylococcus aureus [3] = assay: Antimicrobial activity against methicillin-resistant Staphylococcus aureus ATCC 43300 after 16 hrs by broth microdilution method; type: functional; settings: ATCC 43300, 16 h
Staphylococcus aureus [4] = assay: Antimicrobial activity against methicillin-resistant Staphylococcus aureus ATCC BAA-1753 after 16 hrs by broth microdilution method; type: functional; settings: ATCC BAA-1753, 16 h
Staphylococcus aureus [5] = assay: Antimicrobial activity against methicillin-resistant Staphylococcus aureus ATCC 43300 assessed as inhibition of biofilm formation at 8 uM after 24 hrs by crystal violet staining-based microscopy in presence of 200 uM Zn2+ ion; type: functional
Staphylococcus aureus [6] = assay: Antimicrobial activity against methicillin-susceptible Staphylococcus aureus ATCC 29213 after 16 hrs by broth microdilution method; type: functional; settings: ATCC 29213, 16 h
Staphylococcus aureus [7] = assay: Antimicrobial activity against methicillin-resistant Staphylococcus aureus ATCC 43300 assessed as inhibition of biofilm formation at 8 uM after 24 hrs by crystal violet staining-based microscopy in presence of > 50 uM Zn2+ ion; type: functional, organism-based
Staphylococcus aureus [8] = assay: Antimicrobial activity against methicillin-resistant Staphylococcus aureus ATCC BAA-44 after 16 hrs by broth microdilution method; type: functional; settings: ATCC BAA-44, 16 h
Staphylococcus aureus [9] = assay: Antimicrobial activity against methicillin-resistant Staphylococcus aureus ATCC 43300 assessed as inhibition of biofilm formation after 24 hrs by crystal violet staining-based microscopy; type: functional, organism-based; settings: ATCC 43300, 24 h
Staphylococcus aureus [10] = assay: Antimicrobial activity against methicillin-resistant Staphylococcus aureus ATCC 33591 after 16 hrs by broth microdilution method; type: functional; settings: ATCC 33591, 16 h
Staphylococcus aureus [11] = assay: Antimicrobial activity against methicillin-resistant Staphylococcus aureus ATCC 43300 assessed as inhibition of biofilm formation at 8 uM after 24 hrs by crystal violet staining-based microscopy in presence of Mn2+ ion; type: functional, organism-based
Staphylococcus aureus [12] = assay: Antimicrobial activity against methicillin-resistant Staphylococcus aureus ATCC 43300 assessed as inhibition of biofilm formation at 8 uM after 24 hrs by crystal violet staining-based microscopy in presence of Fe2+ ion; type: functional, organism-based
Staphylococcus aureus [13] = assay: Antimicrobial activity against methicillin-resistant Staphylococcus aureus ATCC 43300 assessed as inhibition of biofilm formation at 8 uM after 24 hrs by crystal violet staining-based microscopy in presence of Ca2+ ion; type: functional, organism-based
Staphylococcus aureus [14] = assay: Antimicrobial activity against methicillin-resistant Staphylococcus aureus ATCC BAA-1685 after 16 hrs by broth microdilution method; type: functional; settings: ATCC BAA-1685, 16 h
Staphylococcus aureus [15] = assay: Antimicrobial activity against methicillin-resistant Staphylococcus aureus ATCC 43300 assessed as inhibition of biofilm formation at 8 uM after 24 hrs by crystal violet staining-based microscopy in presence of < 50 uM Zn2+ ion; type: functional
Staphylococcus aureus [16] = assay: Antimicrobial activity against methicillin-resistant Staphylococcus aureus ATCC BAA-1556 after 16 hrs by broth microdilution method; type: functional; settings: ATCC BAA-1556, 16 h
Staphylococcus aureus [17] = assay: Toxicity in methicillin-resistant Staphylococcus aureus ATCC BAA-44 assessed as inhibition of planktonic cell growth at IC50 after 2 to 24 hrs by spectrophotometry; type: organism-based
Staphylococcus aureus [18] = assay: Antibiofilm activity against methicillin-resistant Staphylococcus aureus ATCC 43300 assessed as biofilm dispersal at 20 uM after 24 hrs by crystal violet staining-based microscopy; type: functional, organism-based
Staphylococcus aureus [19] = assay: Antimicrobial activity against methicillin-resistant Staphylococcus aureus ATCC 43300 assessed as inhibition of biofilm formation at 8 uM after 24 hrs by crystal violet staining-based microscopy in presence of Cu2+ ion; type: functional, organism-based
Staphylococcus aureus [20] = assay: Antimicrobial activity against methicillin-resistant Staphylococcus aureus ATCC BAA-44 assessed as inhibition of biofilm formation after 24 hrs by crystal violet staining-based microscopy; type: functional, organism-based; settings: ATCC BAA-44, 24 h
Acinetobacter baumannii = assay: Antimicrobial activity against multidrug-resistant Acinetobacter baumannii ATCC BAA-1605 after 16 hrs by broth microdilution method; type: functional; settings: ATCC BAA-1605, 16 h
Staphylococcus aureus [21] = assay: Antimicrobial activity against methicillin-resistant Staphylococcus aureus ATCC BAA-811 after 16 hrs by broth microdilution method; type: functional; settings: ATCC BAA-811, 16 h
Pseudomonas aeruginosa = assay: Antimicrobial activity against Pseudomonas aeruginosa PA14 after 16 hrs by broth microdilution method; type: functional; settings: PA14, 16 h
Staphylococcus aureus [22] = assay: Antimicrobial activity against methicillin-resistant Staphylococcus aureus ATCC 43300 assessed as inhibition of biofilm formation at 8 uM after 24 hrs by crystal violet staining-based microscopy in presence of Mg2+ ion; type: functional, organism-based

Structure (SMILES) | Activity (Staphylococcus aureus [1]) | MIC (Staphylococcus aureus [2]) | MIC (Staphylococcus aureus [3]) | MIC (Staphylococcus aureus [4]) | MIC (Staphylococcus aureus [6]) | inhibition (Staphylococcus aureus [7]) | MIC (Staphylococcus aureus [8]) | IC50 (Staphylococcus aureus [9]) | MIC (Staphylococcus aureus [10]) | inhibition (Staphylococcus aureus [11]) | inhibition (Staphylococcus aureus [12]) | inhibition (Staphylococcus aureus [13]) | MIC (Staphylococcus aureus [14]) | MIC (Staphylococcus aureus [16]) | Activity (Staphylococcus aureus [17]) | Activity (Staphylococcus aureus [18]) | IC50 (Staphylococcus aureus [20]) | MIC (Acinetobacter baumannii) | MIC (Staphylococcus aureus [21]) | MIC (Pseudomonas aeruginosa) | further results
CCCCCc1ccc(C(=O)Nc2ccc3c(c2)nc(N)n3CCc2ccccc2)cc1.Cl | Non-toxic | 16 µg/mL | 8 µg/mL | 8 µg/mL | 8 µg/mL | inactive | 16 µg/mL | 4.7 µM | 8 µg/mL | Active | Active | Active | 8 µg/mL | 8 µg/mL | Non-toxic | inactive | 6 µM | > 64 µg/mL | 8 µg/mL | > 64 µg/mL | inhibition (INH) (Staphylococcus aureus [5]): 10%; inhibition (INH) (Staphylococcus aureus [15]): 70%; inhibition (Staphylococcus aureus [19]): Active; inhibition (Staphylococcus aureus [22]): Active
CCCCCCn1c(N)nc2cc(NC(=O)c3ccc(CCCCC)cc3)ccc21.Cl | Non-toxic | 32 µg/mL | 16 µg/mL | 16 µg/mL | 16 µg/mL | inactive | 16 µg/mL | 4.7 µM | 16 µg/mL | Active | Active | Active | 16 µg/mL | 16 µg/mL | Non-toxic | inactive | 7.3 µM | > 64 µg/mL | 16 µg/mL | > 64 µg/mL | inhibition (Staphylococcus aureus [15]): inactive; inhibition (Staphylococcus aureus [19]): Active; inhibition (Staphylococcus aureus [22]): Active
CCCCCc1ccc(C(=O)Nc2ccc3c(c2)nc(N)n3CCc2c[nH]c3ccccc23)cc1.Cl | Toxic | 16 µg/mL | 16 µg/mL | 16 µg/mL | 16 µg/mL | – | 16 µg/mL | 3.7 µM | 8 µg/mL | – | – | – | 16 µg/mL | 16 µg/mL | Toxic | inactive | 4.4 µM | > 64 µg/mL | 8 µg/mL | > 64 µg/mL | –
CCCCCc1ccc(C(=O)Nc2ccc3c(c2)nc(N)n3CCc2ccc3ccccc3c2)cc1.Cl | Toxic | 32 µg/mL | 32 µg/mL | 64 µg/mL | 64 µg/mL | – | 32 µg/mL | 5.7 µM | 32 µg/mL | – | – | – | 32 µg/mL | 32 µg/mL | Toxic | inactive | 14.3 µM | > 64 µg/mL | 32 µg/mL | > 64 µg/mL | –
CCCCCc1ccc(C(=O)Nc2ccc3c(c2)nc(N)n3C2CCCC2)cc1.Cl | Non-toxic | 16 µg/mL | 8 µg/mL | 8 µg/mL | 16 µg/mL | – | 16 µg/mL | 3.6 µM | 8 µg/mL | – | – | – | 8 µg/mL | 8 µg/mL | Non-toxic | inactive | 4.3 µM | > 64 µg/mL | 16 µg/mL | > 64 µg/mL | –
